Results on 31 compounds are retold here after US10995091B2 (Proximagen, LLC, priority 2010, dated 2021).

Where a name gives a salt, the structure may show the parent alone. Where only a bound is given, the exact number is not on record here.

The target of this test is T1, Human CXCR4 transfected HEK293 cells (Homo sapiens, UniProt P61073).
T1 construct: expressed in transfected cells; host or cells: HEK293
T1 sequence (P61073 whole entry): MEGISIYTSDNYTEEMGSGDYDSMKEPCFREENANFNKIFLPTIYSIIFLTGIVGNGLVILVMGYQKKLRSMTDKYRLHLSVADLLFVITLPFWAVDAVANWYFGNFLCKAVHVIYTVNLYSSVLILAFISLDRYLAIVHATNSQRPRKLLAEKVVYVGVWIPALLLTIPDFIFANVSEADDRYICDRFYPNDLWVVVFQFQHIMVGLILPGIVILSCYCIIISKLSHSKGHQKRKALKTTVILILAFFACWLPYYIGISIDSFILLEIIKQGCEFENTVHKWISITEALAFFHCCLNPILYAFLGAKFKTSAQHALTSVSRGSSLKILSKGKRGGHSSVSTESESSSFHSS
Nature of the test: CXCR4 functional calcium assay (calcium flux FLIPR, antagonism of SDF1 response). The format is cell-based. The settings on record: CXCR4 functional activity, antagonism of SDF1 (EC50 concentration), read-out: CXCR4 fKi. An outline of the steps:
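HEK293 cells stably transfected with human CXCR4 were loaded with 2 μM Fluo-4 AM in HBSS containing 2.5 mM probenecid, 0.1% BSA and 10 mM HEPES at pH 7.4 and 37° C. Compound was added first, then SDF1 at its EC50 concentration, and intracellular calcium fluorescence was followed on a FLIPR. Antagonist dose-response curves were fitted.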
(In general: Calcium flux is commonly read through the fluorescence of an indicator in the cells.)
For the compound `CCCCc1cnc(-c2cccc(N3CCCN(C4CCN(C(C)C)CC4)CC3)n2)o1` [Example 171, 1-[6-(5-Butyl-1,3-oxazol-2-yl)pyridin-2-yl]-4-[1-(propan-2-yl)piperidin-4-yl]-1,4-diazepane], the Ki is 500 to 1000 nM.

For `CC(C)N1CCC(N2CCCN(c3cccc(-c4nnc(C5CC5)o4)n3)CC2)CC1` [Example 172, 1-[6-(5-Cyclopropyl-1,3,4-oxadiazol-2-yl)pyridin-2-yl]-4-[1-(propan-2-yl)piperidin-4-yl]-1,4-diazepane], the Ki lay within 100 to 500 nM.

With `Cc1cn[nH]c1-c1cccc(N2CCCN(C3CCN(C(C)C)CC3)CC2)n1` [Example 173, 1-[6-(4-Methyl-1H-pyrazol-3-yl)pyridin-2-yl]-4-[1-(propan-2-yl)piperidin-4-yl]-1,4-diazepane Trihydrochloride], the Ki lay in the range of 500 to 1000 nM.

`CC(C)N1CCC(N2CCC(C)N(c3cccc(C(=O)NCC4CC4)n3)CC2)CC1` (stereo not shown) [Example 174, N-(Cyclopropylmethyl)-6-{7-methyl-4-[1-(propan-2-yl)piperidin-4-yl]-1,4-diazepan-1-yl}pyridine-2-carboxamide]: the Ki is 100 to 500 nM.

`[2H]C1([2H])CCN(C2CCN(C(C)C)CC2)CCN1c1cccc(C(=O)Nc2ccncc2)n1` [Example 175, 6-{7,7-Dihydrogenio-4-[1-(propan-2-yl)piperidin-4-yl]-1,4-diazepan-1-yl}-N-(pyridine-4-yl)pyridine-2-carboxamide]: the Ki is < 20 nM.

In the case of `[2H]C1([2H])CCN(C2CCN([C@H](C)CC)CC2)CCN1c1cccc(C(=O)Nc2ccncc2)n1` [Example 176, 6-(4-{1-[(2R)-Butan-2-yl]piperidin-4-yl}-7,7-dihydrogenio-1,4-diazepan-1-yl)-N-(pyridine-4-yl)pyridine-2-carboxamide], the Ki was < 20 nM.

Consider `[2H]C1([2H])CCN(C2CCN([C@@H](C)CC)CC2)CCN1c1cccc(C(=O)Nc2ccncc2)n1` [Example 177, 6-(4-{1-[(2S)-Butan-2-yl]piperidin-4-yl}-7,7-dihydrogenio-1,4-diazepan-1-yl)-N-(pyridine-4-yl)pyridine-2-carboxamide], for which the Ki is < 20 nM.

Take `[2H]C1([2H])CCN(C2CCN([C@@H](C)C(F)(F)F)CC2)CCN1c1cccc(C(=O)Nc2ccncc2)n1` [Example 178, 6-(7,7-Dihydrogenio-4-{1-[(2S)-1,1,1-trifluoropropan-2-yl]piperidin-4-yl}-1,4-diazepan-1-yl)-N-(pyridine-4-yl)pyridine-2-carboxamide]: the Ki lay in the range of 20 to 100 nM.

On to `[2H]C1([2H])CCN(C2CCN(C3CCCC3)CC2)CCN1c1cccc(C(=O)Nc2ccncc2)n1` [Example 179, 6-[4-(1-Cyclopentylpiperidin-4-yl)-7,7-dihydrogenio-1,4-diazepan-1-yl]-N-(pyridine-4-yl)pyridine-2-carboxamide], for which the Ki was < 20 nM.

For `[2H]C1([2H])CCN(C2CCN(Cc3ccccc3Cl)CC2)CCN1c1cccc(C(=O)Nc2ccncc2)n1` [Example 180, 6-(4-{1-[(2-Chlorophenyl)methyl]piperidin-4-yl}-7,7-dihydrogenio-1,4-diazepan-1-yl)-N-(pyridin-4-yl)pyridine-2-carboxamide], the Ki was < 20 nM.

Consider `[2H]C1([2H])CCN(C2CCN(C(C)C)CC2)CCN1c1cccc(C(=O)NCC2CC2)n1` [Example 181, N-(Cyclopropylmethyl)-6-{7,7-dihydrogenio-4-[1-(propan-2-yl)piperidin-4-yl]-1,4-diazepan-1-yl}pyridine-2-carboxamide], for which the Ki is 20 to 100 nM.

Turning to `CC1CN(c2cccc(C(=O)Nc3ccncc3)n2)CCN(C2CCN(C(C)C)CC2)C1` (stereo not shown) [Example 182, 6-{6-Methyl-4-[1-(propan-2-yl)piperidin-4-yl]-1,4-diazepan-1-yl}-N-(pyridin-4-yl)pyridine-2-carboxamide], the Ki lay in the range of 20 to 100 nM.

Take `CC(C)N1CCC(N2CCN(c3cccc(C(=O)NCC4CC4)n3)CC(O)C2)CC1` (stereo not shown) [Example 183, N-(Cyclopropylmethyl)-6-{6-hydroxy-4-[1-(propan-2-yl)piperidin-4-yl]-1,4-diazepan-1-yl}pyridine-2-carboxamide]: the Ki is 100 to 500 nM.

In the case of `CC(C)N1CCC(N2CCN(c3cccc(C(=O)NCC4CC4)n3)CCC2C)CC1` (stereo not shown) [Example 184, N-(Cyclopropylmethyl)-6-{5-methyl-4-[1-(propan-2-yl)piperidin-4-yl]-1,4-diazepan-1-yl}pyridine-2-carboxamide], the Ki lay in the range of 20 to 100 nM.

As for `CC(C)N1CCC(N2CCCN(c3cccc(C(=O)NCc4cccnc4)n3)CC2)C(F)C1` (stereo not shown) [Example 185, 6-{4-[3-Fluoro-1-(propan-2-yl)piperidin-4-yl]-1,4-diazepan-1-yl}-N-(pyridin-3-ylmethyl)pyridine-2-carboxamide], the Ki fell in the range of 100 to 500 nM.

Regarding `[2H]C1([2H])CCN(c2cccc(C(=O)Nc3ccncc3)n2)CCN1C1CCN(C(C)C)CC1` [Example 186, 6-{5,5-Dihydrogenio-4-[1-(propan-2-yl)piperidin-4-yl]-1,4-diazepan-1-yl}-N-(pyridin-4-yl)pyridine-2-carboxamide], the Ki was < 20 nM.

With `[2H]C1([2H])CCN(c2cccc(C(=O)Nc3ccncc3)n2)CCN1C1CCN(C(C)C)CC1F` (stereo not shown) [Example 187, 6-{4-[3-Fluoro-1-(propan-2-yl)piperidin-4-yl]-5,5-dihydrogenio-1,4-diazepan-1-yl}-N-(pyridin-4-yl)pyridine-2-carboxamide], the Ki lay within 20 to 100 nM.

With `[2H]C1([2H])CCN(c2cccc(C(=O)Nc3ccncc3)n2)CCN1C1CCN([C@H](C)CC)CC1` [Example 188, 6-(4-{1-[(2R)-Butan-2-yl]piperidin-4-yl}-5,5-dihydrogenio-1,4-diazepan-1-yl)-N-(pyridin-4-yl)pyridine-2-carboxamide], the Ki was < 20 nM.

For the compound `[2H]C1([2H])CCN(c2cccc(C(=O)Nc3ccncc3)n2)CCN1C1CCN([C@@H](C)CC)CC1` [Example 189, 6-(4-{1-[(2S)-Butan-2-yl]piperidin-4-yl}-5,5-dihydrogenio-1,4-diazepan-1-yl)-N-(pyridin-4-yl)pyridine-2-carboxamide], the Ki is < 20 nM.

As for `[2H]C1([2H])CCN(c2cccc(C(=O)Nc3ccncc3)n2)CCN1C1CCN([C@@H](C)C(F)(F)F)CC1` [Example 190, 6-(5,5-Dihydrogenio-4-{1-[(2S)-1,1,1-trifluoropropan-2-yl]piperidin-4-yl}-1,4-diazepan-1-yl)-N-(pyridin-4-yl)pyridine-2-carboxamide], the Ki was < 20 nM.

On to `[2H]C1([2H])CCN(c2cccc(C(=O)Nc3ccncc3)n2)CCN1C1CCN(C2CCCC2)CC1` [Example 191, 6-[4-(1-Cyclopentylpiperidin-4-yl)-5,5-dihydrogenio-1,4-diazepan-1-yl]-N-(pyridin-4-yl)pyridine-2-carboxamide], for which the Ki is < 20 nM.

For the compound `[2H]C1([2H])CCN(c2cccc(C(=O)NCC3CC3)n2)CCN1C1CCN(C(C)C)CC1` [Example 192, N-(Cyclopropylmethyl)-6-{5,5-dihydrogenio-4-[1-(propan-2-yl)piperidin-4-yl]-1,4-diazepan-1-yl}pyridine-2-carboxamide], the Ki lay within 20 to 100 nM.

Turning to `CC(C)N1CCC(N2CCCN(c3cccc(C(=O)Nc4ccncc4)n3)CC2C)CC1` (stereo not shown) [Example 193, 6-{3-Methyl-4-[1-(propan-2-yl)piperidin-4-yl]-1,4-diazepan-1-yl}-N-(pyridin-4-yl)pyridine-2-carboxamide], the Ki was < 20 nM.

For the compound `CC(C)N1CCC(N2CCCN(c3cccc(C(=O)NCC4CC4)n3)CC2C)CC1` (stereo not shown) [Example 194, N-(Cyclopropylmethyl)-6-{3-methyl-4-[1-(propan-2-yl)piperidin-4-yl]-1,4-diazepan-1-yl}pyridine-2-carboxamide], the Ki is 20 to 100 nM.

Take `[2H]C1([2H])CCN(c2cccc(C(=O)Nc3ccncc3)n2)CC(C)N1C1CCN(C(C)C)CC1` (stereo not shown) [Example 195, 6-{5,5-Dihydrogenio-3-methyl-4-[1-(propan-2-yl)piperidin-4-yl]-1,4-diazepan-1-yl}-N-(pyridin-4-yl)pyridine-2-carboxamide]: the Ki was < 20 nM.

In the case of `[2H]C1([2H])CCN(c2cccc(C(=O)Nc3ccncc3)n2)CC(C)N1C1CCN([C@@H](C)C(F)(F)F)CC1` (stereo partly drawn) [Example 196, 6-(5,5-Dihydrogenio-3-methyl-4-{1-[(2S)-1,1,1-trifluoropropan-2-yl]piperidin-4-yl}-1,4-diazepan-1-yl)-N-(pyridin-4-yl)pyridine-2-carboxamide], the Ki fell in the range of 20 to 100 nM.

Regarding `CC(C)N1CCC(N2CC3CCC2CN(c2cccc(C(=O)Nc4ccncc4)n2)C3)CC1` (stereo not shown) [Example 197, 6-{6-[1-(Propan-2-yl)piperidin-4-yl]-3,6-diazabicyclo[3.2.2]nonan-3-yl}-N-(pyridin-4-yl)pyridine-2-carboxamide], the Ki is 20 to 100 nM.

As for `CC(C)N1CCC(N2CC3CCC2CN(c2cccc(C(=O)Nc4ccncc4)n2)C3)C(F)C1` (stereo not shown) [Example 198], the Ki was 100 to 500 nM.

Consider `CC(C)N1CCC(N2CC3CCC2CN(c2cccc(C(=O)NCC4CC4)n2)C3)CC1` (stereo not shown) [Example 199, N-(Cyclopropylmethyl)-6-{6-[1-(propan-2-yl)piperidin-4-yl]-3,6-diazabicyclo[3.2.2]nonan-3-yl}pyridine-2-carboxamide trihydrochloride], for which the Ki lay in the range of 500 to 1000 nM.

As for `CC(C)N1CCC(N2CC3CC(C2)N(c2cccc(C(=O)NCC4CC4)n2)C3)CC1` (stereo not shown) [Example 200, N-(Cyclopropylmethyl)-6-{3-[1-(propan-2-yl)piperidin-4-yl]-3,6-diazabicyclo[3.2.1]octan-6-yl}pyridine-2-carboxamide], the Ki is 500 to 1000 nM.

In the case of `CC(C)N1CCOCC1CCN1CCCN(c2cccc(C(=O)Nc3ccncc3)n2)CC1` (stereo not shown) [Example 201, 6-(4-{2-[4-(Propan-2-yl)morpholin-3-yl]ethyl}-1,4-diazepan-1-yl)-N-(pyridin-4-yl)pyridine 2-carboxamide], the Ki was in the range of 100 to 500 nM.
